Read-outs that look alike come from different tables or passages of the source. Positions of bridges follow the written chain, without caps; N, C: chain ends. Non-standard residues stand in square brackets, D forms with d. Residues, ends and D or L forms follow the SMILES beside them. *: point of attachment. NMeF = CN[C@@H](Cc1ccccc1)C(=O)O; NMeI = CC[C@H](C)[C@H](NC)C(=O)O; NMeL = CN[C@@H](CC(C)C)C(=O)O; NMeV = CN[C@H](C(=O)O)C(C)C; NMeA = CN[C@@H](C)C(=O)O; Piperidide = C1CCN(*)CC1; dNMeA = CN[C@H](C)C(=O)O; β3hA = C[C@H](N)CC(=O)O; NPrGly = CCCNCC(=O)O; Sar = CNCC(=O)O; tBu = CC(C)(C)*
How the values were obtained:
[1] = Mouse PK test of peptides (intravenous and oral administration); conditions: male, C57BL/6J, in vivo, 20 mg/kg
[2] = PAMPA (parallel artificial membrane permeability assay); assay type: in vitro ADME; conditions: PAMPA
In short: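 Artificial membrane was 10% (w/v) egg lecithin plus 0.5% (w/v) cholesterol in dodecane on a PVDF filter. A 10 mM DMSO stock was added at 0.5% (v/v) to donor buffer (50 mM MOPSO, pH 6.5, 5.0% glycocholic acid). After 18 h at 37 °C, LC/MS or LC/UV gave donor and acceptor levels for Pe.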

[3] = Metabolic stability in human hepatic microsome; assay type: in vitro ADME; conditions: microsomes
[4] = membrane permeation rate (Pe), 50 mM MOPSO buffer pH 6.5 with 5.0% glycocholic acid, 37° C., 18 hours, read-out: iPAMPA Pe
[5] = pH 7.4, human hepatic microsome, NADPH(+), read-out: CL NADPH(+)

Row | SMILES | AUC ([1]; iv) | C0 ([1]; iv) | Vd ([1]; iv) | clearance ([1]; iv) | half-life ([1]; iv) | AUC ([1]; po) | CL/F ([1]; po) | Cmax ([1]; po) | Tmax ([1]; po) | bioavailability ([1]; po) | Papp at 18 hours, 50 µM [2, 4] | microsomal CLint at 1 uM [3, 5] | half-life ([1]; po) | Papp at 18 hours, 50 µM ([2]; pH 6.5) | microsomal CLint at 1 uM ([3]; human, pH 7.4, CL NADPH(+))
1 | CC(C)C[C@@H]1NC(=O)[C@H](Cc2ccccc2)N(C)C(=O)[C@H](Cc2ccccc2)N(C)C(=O)[C@H](CC(C)C)NC(=O)[C@H](C)N(C)C(=O)[C@H]([C@@H](C)O)NC(=O)[C@H](C)N(C)C(=O)C[C@@H](C(=O)N2CCCCC2)NC(=O)[C@H](CC(C)C)N(C)C1=O [DP-125] ([NMeA]T[NMeA]L[NMeF][NMeF]L[NMeL]D-Piperidide; lactam N-9) | 35400 ng·h/mL | 46400 ng/mL | 0.545 L/kg | 9.49 mL/min/kg | 1.44 h | 12100 ng·h/mL | 27.5 mL/min/kg | 3090 ng/mL | 3.5 h | 34.6% | 55 ×10⁻⁶ cm/s | 189 µL/min/mg |  |  | 
2 | CC[C@H](C)[C@H](NC(=O)[C@@H]1CCCN1C(=O)[C@@H]1CC(=O)N[C@@H](C)C(=O)N[C@@H](CC(C)C)C(=O)N(C)[C@@H]([C@@H](C)CC)C(=O)N[C@@H](C(C)C)C(=O)N(C)[C@@H](Cc2ccccc2)C(=O)N[C@@H](CC(C)C)C(=O)N(C)[C@@H](Cc2ccccc2)C(=O)N1)C(=O)N1CCCCC1 [DP-965] (AL[NMeI]V[NMeF]L[NMeF]DPI-Piperidide; lactam N-8) | 193000 ng·h/mL | 171000 ng/mL | 0.403 L/kg | 1.73 mL/min/kg | 2.99 h | 13700 ng·h/mL | 28.9 mL/min/kg | 1920 ng/mL | 2.67 h | 7.12% | 16 ×10⁻⁶ cm/s | 56 µL/min/mg | 2.99 h |  | 
3 | CCCN1CC(=O)N(C)[C@@H](CC(C)C)C(=O)N[C@@H]([C@@H](C)O)C(=O)N(C)[C@@H](C)C(=O)N(C)[C@@H](CC(C)C)C(=O)N(C)[C@@H]([C@@H](C)CC)C(=O)N[C@@H](COC(C)(C)C)C(=O)N[C@H](C(=O)N2CCCCC2)CC(=O)N(C)[C@@H](C)C(=O)N(C)[C@@H](Cc2ccccc2)C1=O [DP-540] ([NMeA][NMeF][NPrGly][NMeL]T[NMeA][NMeL][NMeI]S(tBu)D-Piperidide; lactam N-10) | 41400 ng·h/mL | 48100 ng/mL | 0.803 L/kg | 8.16 mL/min/kg | 1.63 h | 9800 ng·h/mL | 35.8 mL/min/kg | 1870 ng/mL | 1.83 h | 23.7% | 36 ×10⁻⁶ cm/s | 67 µL/min/mg | 3.11 h |  | 
4 | CCCN1CC(=O)N(C)[C@@H](CC(C)C)C(=O)N[C@@H](COC(C)(C)C)C(=O)N(C)[C@@H](CC(C)C)C(=O)N[C@H](C(=O)N2CCCCC2)CC(=O)N[C@H](C)C(=O)N(C)[C@@H](C)C(=O)N(C)[C@@H](Cc2ccccc2)C(=O)N(C)[C@@H](CC(C)C)C(=O)N[C@@H]([C@@H](C)O)C1=O [DP-547] ([dA][NMeA][NMeF][NMeL]T[NPrGly][NMeL]S(tBu)[NMeL]D-Piperidide; lactam N-10) | 37200 ng·h/mL | 44500 ng/mL | 0.541 L/kg | 8.98 mL/min/kg | 1.1 h | 4510 ng·h/mL | 74.6 mL/min/kg | 1470 ng/mL | 1 h | 12.1% | 34 ×10⁻⁶ cm/s | 33 µL/min/mg | 1.84 h |  | 
5 | CC[C@H](C)[C@H]1C(=O)N[C@H](C(=O)N2CCCCC2)CC(=O)N[C@H](C(C)C)C(=O)N(C)[C@@H](Cc2ccccc2)C(=O)N(C)[C@@H](CC(C)C)C(=O)N[C@@H]([C@@H](C)O)C(=O)N(C)CC(=O)N(C)[C@@H](CC(C)C)C(=O)N[C@@H](COC(C)(C)C)C(=O)N1C [DP-265] ([dV][NMeF][NMeL]T[Sar][NMeL]S(tBu)[NMeI]D-Piperidide; lactam N-9) | 35300 ng·h/mL | 58300 ng/mL | 0.713 L/kg | 9.48 mL/min/kg | 1.82 h | 5120 ng·h/mL | 65.1 mL/min/kg | 2850 ng/mL | 0.67 h | 14.5% | 42 ×10⁻⁶ cm/s | 58 µL/min/mg | 1.96 h |  | 
6 | CC[C@H](C)[C@H](NC(=O)[C@H](Cc1ccccc1)NC(=O)[C@@H]1CC(=O)N[C@@H](C)C(=O)N[C@@H]([C@@H](C)O)C(=O)N(C)CC(=O)N[C@@H](CC(C)C)C(=O)N2CCC[C@H]2C(=O)N(C)[C@@H](CC(C)C)C(=O)N[C@@H](Cc2ccccc2)C(=O)N(C)[C@@H](Cc2ccccc2)C(=O)N(C)[C@@H](CC(C)C)C(=O)N[C@@H](C)C(=O)N(C)[C@@H](CC(C)C)C(=O)N1)C(=O)N1CCCCC1 [DP-952] (AT[Sar]LP[NMeL]F[NMeF][NMeL]A[NMeL]DFI-Piperidide; lactam N-12) |  |  |  |  |  |  |  |  |  |  |  |  |  | 4.4 ×10⁻⁶ cm/s | 91 µL/min/mg
7 | CC[C@H](C)[C@@H]1NC(=O)[C@H](C)N(C)C(=O)[C@H]([C@@H](C)O)NC(=O)[C@H](C(C)C)N(C)C(=O)[C@@H](C)N(C)C(=O)C[C@H](C)NC(=O)[C@H](Cc2ccccc2)NC(=O)[C@H](C)NC(=O)[C@H](Cc2ccccc2)N(C)C1=O [DP-819] (cyclo(AF[β3hA][dNMeA][NMeV]T[NMeA]I[NMeF])) |  |  |  |  |  |  |  |  |  |  | 30 ×10⁻⁶ cm/s | 134 µL/min/mg |  |  | 

Reference: US9409952B2, “Peptide-compound cyclization method” (Chugai Seiyaku Kabushiki Kaisha, priority 2011, dated 2016)
